Laboratory results: ChEMBL document CHEMBL3217560, “Synthesis and binding affinities for sst receptors of cyclic peptoid SRIF-mimetics” (Medchemcomm, 2012)
Positions of bridges follow the written chain, without caps; N, C: chain ends. Non-standard residues stand in square brackets, D forms with d. Residues, ends and D or L forms follow the SMILES beside them. *: point of attachment. Threoninol(2S,3R) = C[C@@H](O)[C@H](CO)N*

What was measured:
[1] = biological target: Somatostatin receptor type 2 (Homo sapiens, UniProt P30874); test: Displacement of [125I]-somatostatin from human sst2a receptor after 2 hrs by beta scintillation counting analysis
[2] = biological target: Somatostatin receptor type 1 (Homo sapiens, UniProt P30872); test: Displacement of [125I]-somatostatin from human sst1 receptor after 2 hrs by beta scintillation counting analysis
[3] = biological target: Somatostatin receptor type 5 (Homo sapiens, UniProt P35346); test: Displacement of [125I]-somatostatin from human sst5 receptor after 2 hrs by beta scintillation counting analysis
[4] = biological target: Somatostatin receptor type 3 (Homo sapiens, UniProt P32745); test: Displacement of [125I]-somatostatin from human sst3 receptor after 2 hrs by beta scintillation counting analysis
[5] = biological target: Somatostatin receptor type 4 (Homo sapiens, UniProt P31391); test: Displacement of [125I]-somatostatin from human sst4 receptor after 2 hrs by beta scintillation counting analysis
Homo sapiens [6] = organism: Homo sapiens; test: Selectivity ratio of Ki for human sst2a receptor to Ki or human sst4 receptor
Homo sapiens [7] = organism: Homo sapiens; test: Selectivity ratio of Ki for human sst1 receptor to Ki for human sst4 receptor

Chain of Somatostatin receptor type 3 (P32745 whole entry): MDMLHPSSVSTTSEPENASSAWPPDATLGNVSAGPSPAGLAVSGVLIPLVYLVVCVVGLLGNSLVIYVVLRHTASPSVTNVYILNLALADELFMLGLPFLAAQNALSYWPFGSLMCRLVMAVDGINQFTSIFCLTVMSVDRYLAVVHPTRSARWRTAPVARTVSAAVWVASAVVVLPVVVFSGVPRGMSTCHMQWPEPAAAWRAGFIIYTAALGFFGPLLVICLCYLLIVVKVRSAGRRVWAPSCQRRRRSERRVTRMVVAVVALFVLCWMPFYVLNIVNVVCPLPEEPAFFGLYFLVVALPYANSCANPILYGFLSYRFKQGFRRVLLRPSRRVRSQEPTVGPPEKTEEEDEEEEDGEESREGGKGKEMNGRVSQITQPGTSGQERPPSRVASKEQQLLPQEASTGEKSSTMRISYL
Chain of Somatostatin receptor type 5 (P35346 whole entry): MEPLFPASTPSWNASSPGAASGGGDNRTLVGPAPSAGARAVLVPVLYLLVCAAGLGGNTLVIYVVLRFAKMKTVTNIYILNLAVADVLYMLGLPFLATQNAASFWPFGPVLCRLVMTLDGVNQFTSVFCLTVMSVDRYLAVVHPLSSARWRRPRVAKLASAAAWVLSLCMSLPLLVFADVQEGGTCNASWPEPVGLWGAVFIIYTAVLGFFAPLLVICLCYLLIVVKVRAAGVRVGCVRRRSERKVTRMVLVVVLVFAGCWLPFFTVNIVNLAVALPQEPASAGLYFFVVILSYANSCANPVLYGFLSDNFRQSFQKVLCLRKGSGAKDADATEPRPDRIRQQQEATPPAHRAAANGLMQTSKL
Chain of Somatostatin receptor type 2 (P30874 whole entry): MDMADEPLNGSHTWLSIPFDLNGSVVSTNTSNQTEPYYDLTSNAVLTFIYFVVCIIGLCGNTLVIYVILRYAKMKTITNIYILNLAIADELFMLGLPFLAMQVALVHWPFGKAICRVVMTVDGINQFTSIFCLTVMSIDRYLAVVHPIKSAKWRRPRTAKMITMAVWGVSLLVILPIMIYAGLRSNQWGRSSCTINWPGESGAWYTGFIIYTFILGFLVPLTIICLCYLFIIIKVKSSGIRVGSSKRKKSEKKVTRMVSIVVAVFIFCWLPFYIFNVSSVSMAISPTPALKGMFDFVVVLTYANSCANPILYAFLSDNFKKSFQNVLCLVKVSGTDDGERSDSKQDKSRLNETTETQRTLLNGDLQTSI
Chain of Somatostatin receptor type 1 (P30872 whole entry): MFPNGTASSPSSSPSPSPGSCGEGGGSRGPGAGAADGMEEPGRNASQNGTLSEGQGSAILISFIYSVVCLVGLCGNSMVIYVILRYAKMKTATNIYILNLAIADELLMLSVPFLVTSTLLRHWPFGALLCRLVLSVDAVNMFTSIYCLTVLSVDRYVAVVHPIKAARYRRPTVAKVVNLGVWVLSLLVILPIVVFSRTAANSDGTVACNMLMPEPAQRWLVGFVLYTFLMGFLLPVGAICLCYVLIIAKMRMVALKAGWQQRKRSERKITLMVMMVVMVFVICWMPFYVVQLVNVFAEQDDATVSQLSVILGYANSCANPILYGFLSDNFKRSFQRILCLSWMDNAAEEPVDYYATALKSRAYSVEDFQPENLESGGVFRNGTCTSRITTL
Chain of Somatostatin receptor type 4 (P31391 whole entry): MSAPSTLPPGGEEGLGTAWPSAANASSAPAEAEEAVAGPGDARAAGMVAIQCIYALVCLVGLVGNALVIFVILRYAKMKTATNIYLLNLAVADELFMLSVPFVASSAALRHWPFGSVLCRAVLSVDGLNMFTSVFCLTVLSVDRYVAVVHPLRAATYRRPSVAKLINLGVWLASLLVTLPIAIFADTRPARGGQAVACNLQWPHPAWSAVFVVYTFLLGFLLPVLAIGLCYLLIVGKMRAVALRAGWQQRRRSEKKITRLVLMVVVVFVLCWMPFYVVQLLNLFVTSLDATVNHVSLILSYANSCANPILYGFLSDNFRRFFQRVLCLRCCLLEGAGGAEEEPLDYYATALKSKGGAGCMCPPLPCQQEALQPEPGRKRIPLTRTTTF

SMILES	Ki [1]	inhibition [1]	Ki [2]	inhibition [2]	Ki [3]	inhibition [3]	Ki [4]	inhibition [4]	Ki [5]	inhibition [5]	Ratio Ki (Homo sapiens [6])	Ratio Ki (Homo sapiens [7])
C[C@@H](O)CN1CCC(=O)N(Cc2ccccc2)CCC(=O)N(CCc2c[nH]c3ccccc23)CC(=O)N(CCCCN)CCC1=O	176 µM	Dose-dependent effect	153 µM	Dose-dependent effect	9.5 µM	Dose-dependent effect	17 µM	Dose-dependent effect	20 µM	Dose-dependent effect	–	–
COC(=O)CCN(Cc1ccccc1)C(=O)CCN(C[C@@H](C)O)C(=O)CCN(CCCCN)C(=O)CN(CCc1c[nH]c2ccccc12)C(=O)CCN(Cc1ccccc1)C(C)=O	110 µM	Dose-dependent effect	16 µM	Dose-dependent effect	13.2 µM	Dose-dependent effect	3.1 µM	Dose-dependent effect	21 µM	Dose-dependent effect	–	–
C[C@@H](O)[C@H](CO)NC(=O)[C@@H]1CSSC[C@H](NC(=O)[C@H](N)Cc2ccccc2)C(=O)N[C@@H](Cc2ccccc2)C(=O)N[C@H](Cc2c[nH]c3ccccc23)C(=O)N[C@@H](CCCCN)C(=O)N[C@@H]([C@@H](C)O)C(=O)N1 (H-[dF]CF[dW]KTC-{Threoninol(2S,3R)}; disulfide 2-7)	–	Dose-dependent effect	–	Dose-dependent effect	–	–	–	Dose-dependent effect	–	Dose-dependent effect	–	–
C[C@@H](O)CN1CCC(=O)N(Cc2ccccc2)CCC(=O)N(CCc2c[nH]c3ccccc23)CCC(=O)N(CCCCN)CCC1=O	198 µM	Dose-dependent effect	102 µM	Dose-dependent effect	28 µM	Dose-dependent effect	22 µM	Dose-dependent effect	4.9 µM	Dose-dependent effect	40	20

More lines, now with the values ahead:

Ki [1]	inhibition [1]	Ki [2]	inhibition [2]	Ki [3]	inhibition [3]	Ki [4]	inhibition [4]	Ki [5]	inhibition [5]	Ratio Ki (Homo sapiens [6])	Ratio Ki (Homo sapiens [7])	SMILES
55 µM	Dose-dependent effect	12 µM	Dose-dependent effect	11 µM	Dose-dependent effect	2.7 µM	Dose-dependent effect	12 µM	Dose-dependent effect	–	–	COC(=O)CCN(Cc1ccccc1)C(=O)CCN(C[C@@H](C)O)C(=O)CCN(CCCCN)C(=O)CCN(CCc1c[nH]c2ccccc12)C(=O)CCN(Cc1ccccc1)C(C)=O
27 µM	Dose-dependent effect	16 µM	Dose-dependent effect	2.1 µM	Dose-dependent effect	2.4 µM	Dose-dependent effect	7.2 µM	Dose-dependent effect	–	–	C[C@@H](O)CN1CCC(=O)N(Cc2ccccc2)CCC(=O)N(Cc2ccccc2)CCC(=O)N(CCc2c[nH]c3ccccc23)CC(=O)N(CCCCN)CCC1=O
44 µM	Dose-dependent effect	8.2 µM	Dose-dependent effect	1.7 µM	Dose-dependent effect	4.6 µM	Dose-dependent effect	10 µM	Dose-dependent effect	–	–	C[C@@H](O)CN1CCC(=O)N(Cc2ccccc2)CCC(=O)N(Cc2ccccc2)CCC(=O)N(CCc2c[nH]c3ccccc23)CCC(=O)N(CCCCN)CCC1=O
